In patent US20190017999A1, “IN VITRO SKIN IMMUNE SYSTEM SIMULATION SYSTEM” (Seoul National University R&DB Foudation, priority 2015, published 2019):
“Also recorded” adds a separate entry of the source.

What was measured:
Format in all cases: cell-based, human
microvessels (HUVEC) = test: Microvessel permeability coefficient by time-lapse FITC-dextran imaging; conditions: 5 ng/ml TNF-α over 24 h
Description: (§1) Human umbilical vein endothelial cells (HUVEC, Lonza) were cultured in endothelial cell growth medium (EGM-2, Lonza). Normal human lung fibroblasts (LF, Lonza) were cultured in fibroblast growth medium (FGM-2, Lonza). Human glioblastoma cells (U87MG, ATCC, Virginia) were cultured in DMEM medium supplemented with 10% fetal bovine serum (FBS), penicillin (100 U/ml) and streptomycin (100 U/ml). MDA-MA-231 cells were purchased from the ATCC (Manassas, Va.). MDA-MB-231 cells were transfected with a pEGFP plasmid, and cells were selected using 1 mg/ml G418 (A.G. scientific, Inc.). […]
To quantify the success rate of the smooth and continuous boundary of microvessels, the length of the vessel boundary was measured, and compared with the straight-line length of the blood vessel channel along the microvessel by use of image J. When the boundary length value was within ±10% of the linear length of the vascular channel, the chip was regarded as success. […] The acquired time-lapse image was analyzed using Image J, and the permeability coefficient was calculated using Equation 1 below: […]
The present inventors introduced 20 kDa FITC-dextran solution into the microvessel to verify the patency of the lumen, and visualized the behavior of the lumen using fluorescence microscopy. […] The present inventors analyzed the junctions by fluorescent immunostaining for claudin-5 and ZO-1 (FIGS. 3C and 3D). […]

[1] = system: MDA-MB-231 cancer cells intravasating into microvessels; test: Cancer intravasation assay in microfluidic chip
Description: as §1, with “Inc.). MDA-MA-231 GFP cells obtained from monoclones were incubated in RPMI1640 (WELGENE, Korea) supplemented with 10% fetal bovine serum, 1% penicillin/streptomycin (Gibco, BRL) and 250 μg/ml G418 (A.G. scientific, Inc.).” for “Inc.).”
(§2) For the quantification of cancer angiogenesis, sprout area and the number of sprouts were manually quantified by using Image J. For quantification of cancer intravasation, the microvessels were stained with CD31 and fluorescence imaged, and cancer cells at the apical side of the microvessel were manually counted using the IMARIS software.
As a vessel to assess the transendothelial migration of MDA-MB-231 cancer cells, the microvessel obtained in the present invention was used. […] The number of cancer cells intravasated into the microvessels was manually counted. […]

VE-cadherin = VE-cadherin immunostaining of cell-cell junctions in microvessels; conditions: 5 ng/ml TNF-α-treated microvessels versus control microvessels (FIG. 5B)
Description: as §1
For microvascular DIC (Differential Interference Contrast Microscope) imaging, the Nikon AE31 microscope was used. […] Confocal images were analyzed using IMARIS software (Bitplane, Switzerland). For fluorescence imaging, FITC-dextran-injected samples were imaged using the IX81 inverted microscope (Olympus).
As a vessel to assess the transendothelial migration of MDA-MB-231 cancer cells, the microvessel obtained in the present invention was used. […] The number of cancer cells intravasated into the microvessels was manually counted. […] In addition, the effect of TNF-α on cancer cell intravasation was analyzed. the rate of intravasation with or without TNF-α treatment was compared (n=7 chips per condition). […]

[2] = system: blood vessels and pericytes (HUVEC-pericyte co-culture); test: Response of co-cultured blood vessels and pericytes to added factors; conditions: factor added to blood vessel-pericyte co-culture of Example 5; compared to control group (FIG. 13)
[3] = system: HUVEC microvessels with U87MG cells; test: Cancer angiogenesis assay in microfluidic chip (angiogenic sprouting from microvessels induced by U87MG cells); conditions: bevacizumab 500 μg/ml
Description: Human umbilical vein endothelial cells (HUVEC, Lonza) were cultured in endothelial cell growth medium (EGM-2, Lonza). Normal human lung fibroblasts (LF, Lonza) were cultured in fibroblast growth medium (FGM-2, Lonza). Human glioblastoma cells (U87MG, ATCC, Virginia) were cultured in DMEM medium supplemented with 10% fetal bovine serum (FBS), penicillin (100 U/ml) and streptomycin (100 U/ml). MDA-MA-231 cells were purchased from the ATCC (Manassas, Va.). MDA-MB-231 cells were transfected with a pEGFP plasmid, and cells were selected using 1 mg/ml G418 (A.G. scientific, Inc.). MDA-MA-231 GFP cells obtained from monoclones were incubated in RPMI1640 (WELGENE, Korea) supplemented with 10% fetal bovine serum, 1% penicillin/streptomycin (Gibco, BRL) and 250 μg/ml G418 (A.G. scientific, Inc.). All cells were incubated in a humidified incubator at 37° C. under 5% CO2. For immunostaining, endothelial cells were imaged using mouse monoclonal antibodies specific for human ZO-1 (Alexa Fluor594, clone ZO1-1A12, molecular probe), CD31 ([…], clone WM59, Biolegends), VE-cadherin (eBioscience) and claudin-5 (Invitrogen), and the nucleus was stained with Hoechst 33342 (molecular probe). Bevacizumab (Avastin, Genentech) was diluted to 500 μg/ml, and microvessels introduced with cancer were treated with the dilution in cancer angiogenesis experiments. Recombinant human TNF-alpha (PetroTech) was diluted to 5 ng/ml, and microvessels were treated with the dilution at 24 hours before introduction of cancer. […]
as §2
The present inventors analyzed the angiogenic potential of cancer cells by using the microvessels having a smooth vessel wall. […]

[4] = 3 days after introduction of U87MG cells, versus U87MG without bevacizumab

Molecule: TNF-α
- permeability of TNF-α-treated microvessels (microvessels (HUVEC); mean±standard error, n=5 chips): 2.22±0.67×10^−6 cm/s
- permeability relative to normal condition (microvessels (HUVEC); versus normal condition): 1.4 fold
- rate of cancer intravasation relative to control ([1]; 5 ng/ml TNF-α 24 hours before introduction of MDA-MB-231 cells, n=7 chips per condition): 3 fold
- rate of cancer intravasation (in words) ([1]; TNF-α-treated microvessels compared with control experiment, p<0.0005): very high rate of cancer intravasation
- VE-cadherin junction morphology (VE-cadherin): disrupted and pleated form; also recorded: disrupted continuity and wrinkled morphology
- response of pericytes and blood vessels [2]: pericytes sprouted out from the blood vessels and formed many filopodia

Molecule: bevacizumab: anti-vascular endothelial growth factor (anti-VEGF) antibody, Avastin, Genentech
- coverage area of sprouts [3, 4]: significantly reduced; also recorded: drastically decreasing
- number of sprouts [3, 4]: significantly reduced; also recorded: drastically decreasing
- microvascular sprouts / vessel boundary in micrographs ([3]; microscopic images 3 days after injection of cancer cells (FIG. 4A)): greatly reduced; also recorded: flat boundary without angiogenic sprouts

B1: IL-1a: typical factor occurring in the peritumoral environment and inflammatory conditions (protein, UniProt P01583 113-271, looked up)
Interleukin-1 alpha: SAPFSFLSNVKYNFMRIIKYEFILNDALNQSIIRANDQYLTAAALHNLDEAVKFDMGAYKSSKDDAKITVILRISKTQLYVTAQDEDQPVLLKEMPEIPKTITGSETNLLFFWETHGTKNYFTSVAHPNLFIATKQDYWVCLAGGPPSITDFQILENQA
- response of pericytes and blood vessels [2]: pericytes sprouted out from the blood vessels and formed many filopodia
